Here are results for ten compounds from patent publication US20210009542A1 (Calico Life Sciences LLC, priority 2018, published 2021).

Experiment [1] deals with T1, His tagged PTPN2 (TC45) protein (Homo sapiens, UniProt P17706).
T1 construct: made in house
T1 sequence (P17706 with tags, fused parts or gaps isoform P17706-2): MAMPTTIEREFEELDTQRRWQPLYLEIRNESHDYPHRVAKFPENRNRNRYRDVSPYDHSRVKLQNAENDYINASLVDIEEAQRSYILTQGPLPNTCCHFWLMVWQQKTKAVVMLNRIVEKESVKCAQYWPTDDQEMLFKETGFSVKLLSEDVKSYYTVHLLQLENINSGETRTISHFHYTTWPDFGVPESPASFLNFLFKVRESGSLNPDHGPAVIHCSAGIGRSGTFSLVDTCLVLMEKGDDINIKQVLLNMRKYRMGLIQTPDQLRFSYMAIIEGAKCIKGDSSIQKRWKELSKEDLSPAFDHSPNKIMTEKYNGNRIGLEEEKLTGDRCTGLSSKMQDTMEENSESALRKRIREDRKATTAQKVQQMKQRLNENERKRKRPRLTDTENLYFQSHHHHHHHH
As to the kind of experiment: Mobility shift assay (MSA) for potency of PTPN2 inhibitors. The format is biochemical. The conditions noted are these: read-out: PTPN2 MSA IC50. The method in brief:
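IC50 values were derived from % inhibition of substrate conversion, measured by microfluidic mobility shift (ex 488/em 530) after quenching. The fluorescent phosphotyrosine insulin-receptor peptide ([…]) reacted for 10 min at room temperature with 0.5 nM His-tagged TC45 PTPN2 that had been preincubated 10 min with compound (12 points, 1:3). Buffer was HEPES pH 7.5 with EGTA, EDTA, Tween 20 and DTT.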

Experiment [2] deals with B16F10 mouse melanoma cells. Briefly: B16F10 IFNγ-induced cellular growth inhibition assay. It is filed as cell-based. The note with it: Mus musculus, B16-F10, 33 μM compound. The method in brief:
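Live-cell imaging of confluence every 6 h over 5 days at 37 °C tracked growth of mouse B16F10 melanoma cells seeded overnight at 500/well. Semi-log compound series (final 100–0.001 μM, 0.1% DMSO) ran in both arms, ±IFNγ at 0.5 ng/mL final; inhibition taken relative to DMSO plus IFNγ when IFNγ-free DMSO wells passed 95% confluence.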

Experiment [3] concerns Pan T cells isolated from C57BL6 splenocytes. As to the kind of experiment: T cell activation assay (flow cytometry, CD25/CD69 on CD8 T cells). The format is cell-based, mouse. The note with it: for % CD25 within CD8+ / % CD69 within CD8+ / CD25 MFI / CD69 MFI: 30 μM compound, 2 days. As for the experimental part:
(§1) Pan T cells were isolated from C57BL6 splenocytes using a MACS Pan T cell isolation kit II (Miltenyi Biotec, Auburn, Calif.) according to the manufacturer's instructions. Isolated T cells (200,000 cells/well in a 96 well flat-bottom plate) were cultured in RPMI 1640 supplemented with 10% FBS, […] 2-mercatoethanol, 100 U/mL penicillin, and 100 μg/mL streptomycin, and incubated with the indicated concentration of compound or DMSO in duplicates. After 1 hour, mouse T cell activator CD3/CD28 Dynabeads (ThermoFisher Scientific, Waltham, Mass.) were added at a 1:5 beads to cells ratio to stimulate the T cells for 2 or 3 days as outlined below. T cells with or without compound were incubated in the absence of T cell activator beads (media only) as control.
After 2 days of stimulation, activation status of T cells was assessed by flow cytometry. T cells were first subjected to Zombie Violet™ Fixable Viability dye (BioLegend, San Diego, Calif.) for dead cell exclusion, washed and then stained with BUV805 labeled anti-CD8, APC-R700 labeled anti-CD25 (both from BD Biosciences, San Jose, Calif.) and PE labeled anti-CD69 (BioLegend, San Diego, Calif.) antibodies. After staining, cells were fixed with 2% paraformaldehyde and acquired on a BD LSRFortessa™ X-20 flow cytometer (BD Biosciences, San Jose, Calif.) using BD FACSDiva™ software. Data was analyzed using FlowJo V10 (Flow Jo LLC, Ashland, Oreg.). Dead cells were excluded and frequencies of activated CD8 T cells was reported as the frequency of CD25+ or CD69+ cells within the CD8+ population. The expression level of CD25 and CD69 indicates the activation status of cells on a per cell basis and was evaluated by the mean fluorescence intensities (MFI) of CD25 and CD69.
For orientation: A flow cytometer gives signals particle by particle.

The test system is the same in experiment [4]. As to the kind of experiment: T cell function assay (IFNγ and TNFα in supernatants, MSD V-plex). It is filed as cell-based, mouse. The note with it: 30 μM compound, 3 days, supernatant. As for the experimental part: as §1
After 3 days of stimulation, supernatants were collected and IFNγ and TNFα in supernatants were assessed using an MSD V-plex assay (Meso Scale Discovery, Rockville, Md.).

The target in experiment [5] is T2, His tagged full-length PTP1B protein (Homo sapiens, UniProt P18031).
T2 construct: made in house
T2 sequence (P18031 with tags, fused parts or gaps): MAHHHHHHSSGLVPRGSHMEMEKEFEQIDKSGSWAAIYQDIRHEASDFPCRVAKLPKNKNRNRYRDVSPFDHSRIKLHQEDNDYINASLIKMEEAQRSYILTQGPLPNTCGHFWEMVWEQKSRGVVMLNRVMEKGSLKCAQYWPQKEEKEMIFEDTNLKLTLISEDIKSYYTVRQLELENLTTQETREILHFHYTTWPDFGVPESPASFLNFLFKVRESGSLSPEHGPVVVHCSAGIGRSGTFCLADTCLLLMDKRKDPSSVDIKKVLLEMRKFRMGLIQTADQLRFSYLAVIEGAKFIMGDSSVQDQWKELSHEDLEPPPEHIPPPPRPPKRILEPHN
Briefly: Mobility shift assay (MSA) for potency of PTP1B inhibitors. It is filed as biochemical. The protocol:
The enzymatic assay used to determine activity is a mobility shift assay using a LabChip EZ Reader by Caliper Life Sciences. The enzymatic reaction was carried out in assay buffer (50 mM HEPES pH 7.5, 1 mM EGTA, 10 mM EDTA, 0.01% Tween® 20, and 2 mM DTT). […] The enzyme (at 0.5 nM) was incubated with compound for 10 minutes at room temperature. […] The % inhibition was then used to calculate the IC50 values.

The mark [6] stands for this setting: +0.5 ng/mL IFNγ, relative to DMSO control, read-out: % B16F10 growth inhibition (+0.5 ng/mL IFNγ) @ 33 μM.
Setting [7] is: no IFNγ, read-out: % B16F10 growth inhibition (no IFNγ) @ 33 μM.
Setting [8] is: anti-CD3/anti-CD28 Dynabeads (1:5 beads:cells).

Structures are written as SMILES. Where two headings read alike, the source gives them in different places. Bounds are passed on as bounds.

Regarding `O=C1CN(c2c(O)cc3ccc(C4=CCN(S(=O)(=O)C5CC5)C4)cc3c2F)S(=O)(=O)N1` [Compound 113, 5-{7-[1-(cyclopropanesulfonyl)-2,5-dihydro-1H-pyrrol-3-yl]-1-fluoro-3-hydroxynaphthalen-2-yl}-1λ^6,2,5-thiadiazolidine-1,1,3-trione], the IC50 in experiment [1] was less than 1 nM. The inhibition at 33 µM in experiment [2] (setting [6]) was more than 90%. Besides, in experiment [2] (setting [7]), the inhibition at 33 µM is less than 25%. Further, in experiment [3] (setting [8]), the “% CD25 within CD8+” value is given as 44.55%, the “% CD69 within CD8+” value is 73.95%, the “CD25 MFI” value is reported as 1265 and the “CD69 MFI” value came out at 1891. Besides, in experiment [3] (no TCR stimulation), the “% CD25 within CD8+” value is 0.49%, the “% CD69 within CD8+” value worked out at 0.24%, the “CD25 MFI” value worked out at 51.7 and the “CD69 MFI” value is 28.8. Further, the “T cell activation and T cell function” value in experiment [3] (with TCR stimulation) is “increased both T cell activation and T cell function”. In experiment [4] (setting [8]), the “IFNγ” value was found to be 356 ng/mL and the “TNFα” value is 208 ng/mL. Moreover, in experiment [4] (no TCR stimulation), the “IFNγ” value was determined as 1.2 ng/mL and the “TNFα” value is 1.5 ng/mL.

`O=C1CN(c2c(O)cc3ccc(OCCNS(=O)(=O)C4COC4)cc3c2F)S(=O)(=O)N1` [Compound 298, N-(2-{[8-fluoro-6-hydroxy-7-(1,1,4-trioxo-1λ^6,2,5-thiadiazolidin-2-yl)naphthalen-2-yl]oxy}ethyl)oxetane-3-sulfonamide]: the IC50 in experiment [1] and in experiment [5] was less than 1 nM throughout. In addition, the results for the inhibition at 33 µM in experiment [2] (setting [6]) and in experiment [2] (setting [7]) were more than 90% and less than 25%, respectively.

Consider `O=C1CN(c2c(O)cc3ccc(CC4CCCN(S(=O)(=O)C5CC5)C4)cc3c2F)S(=O)(=O)N1` (stereo not shown) [Compound 259, 5-(7-{[1-(cyclopropanesulfonyl)piperidin-3-yl]methyl}-1-fluoro-3-hydroxynaphthalen-2-yl)-1λ^6,2,5-thiadiazolidine-1,1,3-trione], for which the IC50 in experiment [1] and in experiment [5] was 1 to 10 nM in each case. In addition, the inhibition at 33 µM in experiment [2] (setting [6]) and in experiment [2] (setting [7]) was less than 25% in each case.

Consider `CN(C)CCNc1ccc2cc(O)c(N3CC(=O)NS3(=O)=O)c(F)c2c1` [Compound 122, 5-(7-{[2-(dimethylamino)ethyl]amino}-1-fluoro-3-hydroxynaphthalen-2-yl)-1λ^6,2,5-thiadiazolidine-1,1,3-trione], for which the half-inhibitory concentration (IC50) in experiment [1] and in experiment [5] was 10 to 100 nM throughout. The inhibition at 33 µM in experiment [2] (setting [6]) was 60 to 90%; in experiment [2] (setting [7]) it was less than 25%.

`O=C1CN(c2c(O)cc3ccc(C4CCCOC4)cc3c2F)S(=O)(=O)N1` (stereo not shown) [Compound 249, 5-[1-fluoro-3-hydroxy-7-(oxan-3-yl)naphthalen-2-yl]-1λ^6,2,5-thiadiazolidine-1,1,3-trione]: the IC50 in experiment [1] is 1 to 10 nM; in experiment [5], more than 100 nM. The inhibition at 33 µM in experiment [2] (setting [6]) is 60 to 90%; in experiment [2] (setting [7]), less than 25%.

With `CC(C)N1CCC(F)(COc2ccc3cc(O)c(N4CC(=O)NS4(=O)=O)c(F)c3c2)C1` (stereo not shown) [Compound 109, 5-(1-fluoro-7-{[3-fluoro-1-(propan-2-yl)pyrrolidin-3-yl]methoxy}-3-hydroxynaphthalen-2-yl)-1λ^6,2,5-thiadiazolidine-1,1,3-trione], the IC50 in experiment [1] was in the range of 1 to 10 nM; in experiment [5] it was 10 to 100 nM. The inhibition at 33 µM in experiment [2] (setting [6]) and in experiment [2] (setting [7]) was less than 25% in each case.

Consider `NC12CC(CCOc3ccc4cc(O)c(N5CC(=O)NS5(=O)=O)c(F)c4c3)(C1)C2` [Compound 121, 5-{7-[2-(3-aminobicyclo[1.1.1]pentan-1-yl)ethoxy]-1-fluoro-3-hydroxynaphthalen-2-yl}-1λ^6,2,5-thiadiazolidine-1,1,3-trione], for which the concentration for half-maximal inhibition (IC50) in experiment [1] and in experiment [5] was 1 to 10 nM each time. Also, the inhibition at 33 µM in experiment [2] (setting [6]) was 60 to 90%; in experiment [2] (setting [7]) it was less than 25%.

With `O=C1CN(c2c(O)cc3ccc(OCC4CCCOC4)cc3c2F)S(=O)(=O)N1` (stereo not shown) [Compound 271, 5-{1-fluoro-3-hydroxy-7-[(oxan-3-yl)methoxy]naphthalen-2-yl}-1λ^6,2,5-thiadiazolidine-1,1,3-trione], the IC50 in experiment [1] was less than 1 nM; in experiment [5] it was more than 100 nM. Besides, the inhibition at 33 µM in experiment [2] (setting [6]) was 60 to 90%; in experiment [2] (setting [7]), less than 25%.

For the compound `CS(=O)(=O)N1CCC(Nc2ccc3cc(O)c(N4CC(=O)NS4(=O)=O)c(F)c3c2)C1` (stereo not shown) [Compound 126, 5-(1-fluoro-3-hydroxy-7-{[1-(methanesulfonyl)pyrrolidin-3-yl]amino}naphthalen-2-yl)-1λ^6,2,5-thiadiazolidine-1,1,3-trione], the IC50 in experiment [1] and in experiment [5] was 1 to 10 nM each time. Moreover, the inhibition at 33 µM is 60 to 90% in experiment [2] (setting [6]) and less than 25% in experiment [2] (setting [7]).

Take `O=C1CN(c2c(O)cc3ccc(C4CCN(S(=O)(=O)C5CC5)C4)cc3c2F)S(=O)(=O)N1` (stereo not shown) [Compound 101, 5-{7-[1-(cyclopropanesulfonyl)pyrrolidin-3-yl]-1-fluoro-3-hydroxynaphthalen-2-yl}-1λ^6,2,5-thiadiazolidine-1,1,3-trione]: the IC50 in experiment [1] was less than 1 nM; in experiment [5], 1 to 10 nM. Also, the inhibition at 33 µM in experiment [2] (setting [6]) is 60 to 90%; in experiment [2] (setting [7]) it was less than 25%.

Usually IC50 stands for the point on the concentration scale where inhibition reaches its midpoint.
